Parameters in all cases: scale not given: the % may be the effect or the level left
Test [1] addresses Casein kinase I isoform delta (Homo sapiens) (UniProt P48730). As to the kind of experiment: Inhibition of human CK1 delta (1 to 415 residues) assessed as enzyme activity at 1 uM using 33P ATP by radioactive filter binding assay.
In test [2] the target is Serine/threonine-protein kinase pim-1 (Homo sapiens) (UniProt P11309). Description: Inhibition of human PIM1 (2 to 313 residues) assessed as enzyme activity at 1 uM using 33P ATP by radioactive filter binding assay.
Test [3] has as its target T1, Serine/threonine-protein kinase Nek2 (Homo sapiens) (UniProt P51955).
T1 sequence (whole entry): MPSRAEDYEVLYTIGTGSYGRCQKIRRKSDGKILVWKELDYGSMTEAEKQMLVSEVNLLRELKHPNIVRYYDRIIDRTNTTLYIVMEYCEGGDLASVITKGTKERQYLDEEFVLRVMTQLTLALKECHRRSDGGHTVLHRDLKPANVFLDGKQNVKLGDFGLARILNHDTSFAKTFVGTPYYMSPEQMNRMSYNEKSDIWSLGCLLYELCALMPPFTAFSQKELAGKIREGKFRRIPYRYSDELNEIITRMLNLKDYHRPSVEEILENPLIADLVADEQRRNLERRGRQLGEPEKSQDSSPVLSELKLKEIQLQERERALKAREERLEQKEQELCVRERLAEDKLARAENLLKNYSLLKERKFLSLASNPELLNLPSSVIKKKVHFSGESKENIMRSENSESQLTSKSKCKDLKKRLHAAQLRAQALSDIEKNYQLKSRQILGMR
As to the kind of experiment: Inhibition of human NEK2A (1 to 445 residues) assessed as enzyme activity at 1 uM using 33P ATP by radioactive filter binding assay.

Test [4] addresses T2, Protein kinase C zeta type (Homo sapiens) (UniProt Q05513).
T2 sequence (whole entry): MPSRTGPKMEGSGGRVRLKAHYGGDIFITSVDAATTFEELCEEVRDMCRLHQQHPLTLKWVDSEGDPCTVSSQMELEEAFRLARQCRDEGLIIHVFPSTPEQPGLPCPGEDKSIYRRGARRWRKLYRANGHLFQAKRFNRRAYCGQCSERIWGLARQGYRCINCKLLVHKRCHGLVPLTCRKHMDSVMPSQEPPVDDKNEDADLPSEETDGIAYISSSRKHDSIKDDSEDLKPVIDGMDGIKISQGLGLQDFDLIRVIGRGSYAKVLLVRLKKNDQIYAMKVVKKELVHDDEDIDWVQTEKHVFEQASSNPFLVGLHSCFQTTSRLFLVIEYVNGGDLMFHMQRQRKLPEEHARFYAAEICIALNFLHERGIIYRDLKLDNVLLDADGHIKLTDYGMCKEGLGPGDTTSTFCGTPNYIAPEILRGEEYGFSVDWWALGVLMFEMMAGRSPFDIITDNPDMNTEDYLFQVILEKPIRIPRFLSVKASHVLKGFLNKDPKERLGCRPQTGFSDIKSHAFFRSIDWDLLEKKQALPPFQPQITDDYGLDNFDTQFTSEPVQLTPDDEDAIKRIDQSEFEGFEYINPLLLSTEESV
As to the kind of experiment: Inhibition of human PKCzeta (2 to 592 residues) assessed as enzyme activity at 1 uM using 33P ATP by radioactive filter binding assay.

Test [5] concerns the target Serine/threonine-protein kinase PAK 4 (Homo sapiens) (UniProt O96013). As to the kind of experiment: Inhibition of human PAK4 (2 to 591 residues) assessed as enzyme activity at 1 uM using 33P ATP by radioactive filter binding assay.
Test [6] addresses T3, Mitogen-activated protein kinase 13 (Homo sapiens) (UniProt O15264).
T3 sequence (whole entry): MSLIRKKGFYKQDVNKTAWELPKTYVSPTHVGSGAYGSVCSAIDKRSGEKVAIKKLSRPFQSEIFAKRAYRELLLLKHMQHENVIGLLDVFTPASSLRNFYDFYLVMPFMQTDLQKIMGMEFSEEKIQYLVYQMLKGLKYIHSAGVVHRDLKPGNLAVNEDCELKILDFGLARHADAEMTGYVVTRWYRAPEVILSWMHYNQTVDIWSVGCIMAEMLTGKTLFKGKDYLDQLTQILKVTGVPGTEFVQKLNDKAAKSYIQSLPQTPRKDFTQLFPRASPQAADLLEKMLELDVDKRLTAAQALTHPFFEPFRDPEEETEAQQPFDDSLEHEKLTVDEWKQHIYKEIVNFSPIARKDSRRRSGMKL
As to the kind of experiment: Inhibition of SAPK4 (unknown origin) assessed as enzyme activity at 1 uM using 33P ATP by radioactive filter binding assay.

Test [7] deals with Serine/threonine-protein kinase PAK 5 (Homo sapiens) (UniProt Q9P286). Description: Inhibition of human PAK5 (2 to 719 residues) assessed as enzyme activity at 1 uM using 33P ATP by radioactive filter binding assay.
Test [8] concerns the target Mitogen-activated protein kinase 8 (Homo sapiens) (UniProt P45983). Description: Inhibition of human JNK1alpha1 assessed as enzyme activity at 1 uM using 33P ATP by radioactive filter binding assay.
The target of test [9] is T4, Serine/threonine-protein kinase D1 (Homo sapiens) (UniProt Q15139).
T4 sequence (whole entry): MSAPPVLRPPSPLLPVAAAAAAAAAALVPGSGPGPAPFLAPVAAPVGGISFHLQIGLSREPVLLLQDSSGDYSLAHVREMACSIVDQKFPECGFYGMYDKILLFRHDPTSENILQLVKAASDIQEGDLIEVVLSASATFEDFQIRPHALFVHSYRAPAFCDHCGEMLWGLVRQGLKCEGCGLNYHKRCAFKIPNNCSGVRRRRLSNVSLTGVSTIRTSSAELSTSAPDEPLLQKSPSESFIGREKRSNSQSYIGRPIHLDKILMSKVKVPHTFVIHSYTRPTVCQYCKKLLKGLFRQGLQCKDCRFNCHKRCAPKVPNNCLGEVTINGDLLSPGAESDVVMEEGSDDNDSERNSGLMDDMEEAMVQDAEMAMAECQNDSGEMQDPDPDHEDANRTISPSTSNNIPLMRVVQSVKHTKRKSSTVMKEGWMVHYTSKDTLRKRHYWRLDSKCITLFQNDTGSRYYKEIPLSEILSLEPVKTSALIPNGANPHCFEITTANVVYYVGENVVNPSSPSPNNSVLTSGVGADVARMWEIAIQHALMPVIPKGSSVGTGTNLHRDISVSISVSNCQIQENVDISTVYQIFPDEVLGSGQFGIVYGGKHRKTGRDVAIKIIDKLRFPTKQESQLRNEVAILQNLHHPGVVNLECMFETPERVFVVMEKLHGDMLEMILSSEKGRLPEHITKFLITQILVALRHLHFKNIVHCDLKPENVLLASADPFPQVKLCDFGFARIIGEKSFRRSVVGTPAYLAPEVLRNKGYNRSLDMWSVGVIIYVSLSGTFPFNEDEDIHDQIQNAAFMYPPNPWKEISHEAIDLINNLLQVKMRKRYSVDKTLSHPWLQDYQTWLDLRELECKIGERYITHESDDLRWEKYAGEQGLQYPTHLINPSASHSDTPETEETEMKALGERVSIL
As to the kind of experiment: Inhibition of human PKD1 (2 to 912 residues) assessed as enzyme activity at 1 uM using 33P ATP by radioactive filter binding assay.

In the case of `CCCCc1cc(-c2c[nH]c3ncc(-c4cnn(C5CCNCC5)c4)cc23)nc(N)n1`, the Activity in test [1] was -72%; in test [2] it was -98%; in test [3], -89%; in [4], -42%; in test [5], -60%; in [6] it was -34%. Besides, the Activity in [7] is -38%; in test [8], -41%; in test [9], -98%.

As for `CCCCc1cc(-c2c[nH]c3ncccc23)nc(N)n1`, the Activity in test [1] is -26%; in test [2], -61%; in [3] it was 2%; in test [4] it was -43%; in test [5], 1%; in test [6], -37%. The Activity in [7] was 6%; in test [8], -6%; in [9], -53%.

As for `CCc1cc(-c2c[nH]c3ncc(-c4cnn(C5CCNCC5)c4)cc23)nc(N)n1`, the Activity in test [1] was -67%; in test [2], -85%; in test [3], -58%; in [4], -18%; in test [5], -47%; in [6], -22%. The Activity was 200% in test [7], -31% in [8] and -96% in [9].

Regarding `Nc1nccc(-c2c[nH]c3ncccc23)n1` [MERIOLIN 1], the Activity in test [1] was -74%; in test [2], -62%; in test [3], -4%; in test [4], -35%; in test [5], -22%; in test [6], -27%. For the same molecule, the Activity in [7] was -30%; in [8], -5%; in test [9] it was -41%.

The values are drawn from ChEMBL document CHEMBL3813616, “Discovery of novel 7-azaindoles as PDK1 inhibitors” (Bioorg Med Chem Lett, 2016).
